Reference: patent US12030897B2, “Pyrrolo[2,1-f][1,2,4]triazine derivatives serving as selective HER2 inhibitors and application thereof” (MEDSHINE DISCOVERY INC., priority 2018, dated 2024)
Several values for one entry are separate records, joined by “and”; a condition that tells them apart may be missing. Equal entries are not always repeated.

How the values were obtained:
[1] = target: HER4 (ErbB4) (Homo sapiens (Human), UniProt Q15303); test: In vitro enzyme activity, HER4 (ErbB4), [γ-33P]ATP filter assay; assay type: biochemical
HER4 (ErbB4), sequence (Q15303 26-1308): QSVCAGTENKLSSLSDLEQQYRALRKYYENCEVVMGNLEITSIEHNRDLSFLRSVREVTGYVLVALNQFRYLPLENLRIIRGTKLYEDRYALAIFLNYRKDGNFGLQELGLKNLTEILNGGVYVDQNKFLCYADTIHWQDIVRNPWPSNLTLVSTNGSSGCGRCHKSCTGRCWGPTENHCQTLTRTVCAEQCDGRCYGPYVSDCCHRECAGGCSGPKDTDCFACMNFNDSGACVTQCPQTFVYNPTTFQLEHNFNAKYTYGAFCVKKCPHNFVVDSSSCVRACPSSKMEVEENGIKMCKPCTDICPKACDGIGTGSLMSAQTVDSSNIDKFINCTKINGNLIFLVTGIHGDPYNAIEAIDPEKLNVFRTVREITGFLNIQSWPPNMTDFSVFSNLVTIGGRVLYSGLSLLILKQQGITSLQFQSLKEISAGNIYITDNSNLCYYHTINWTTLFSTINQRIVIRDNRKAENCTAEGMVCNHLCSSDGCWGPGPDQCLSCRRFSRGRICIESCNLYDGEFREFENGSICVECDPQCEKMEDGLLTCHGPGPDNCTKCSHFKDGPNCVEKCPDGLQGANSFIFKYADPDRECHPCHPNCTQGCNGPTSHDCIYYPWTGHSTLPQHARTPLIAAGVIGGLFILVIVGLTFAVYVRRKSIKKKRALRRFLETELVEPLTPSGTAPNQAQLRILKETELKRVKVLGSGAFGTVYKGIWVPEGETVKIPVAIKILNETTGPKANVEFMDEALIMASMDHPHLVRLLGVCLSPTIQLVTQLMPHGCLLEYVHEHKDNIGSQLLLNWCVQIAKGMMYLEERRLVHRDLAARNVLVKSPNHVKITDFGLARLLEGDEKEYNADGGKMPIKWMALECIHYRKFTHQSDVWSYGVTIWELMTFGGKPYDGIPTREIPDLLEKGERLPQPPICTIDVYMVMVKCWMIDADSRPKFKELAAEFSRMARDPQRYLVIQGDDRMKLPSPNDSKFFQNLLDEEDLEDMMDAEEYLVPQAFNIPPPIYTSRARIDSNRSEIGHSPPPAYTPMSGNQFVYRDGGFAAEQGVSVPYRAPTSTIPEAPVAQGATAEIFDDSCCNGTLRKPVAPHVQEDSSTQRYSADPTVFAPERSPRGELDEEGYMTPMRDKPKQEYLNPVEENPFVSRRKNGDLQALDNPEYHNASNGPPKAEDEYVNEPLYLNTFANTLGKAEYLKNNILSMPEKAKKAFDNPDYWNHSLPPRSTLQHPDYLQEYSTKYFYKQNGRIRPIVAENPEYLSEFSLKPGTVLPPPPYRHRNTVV
Experimental: (§1) The object of this test is to detect the in vitro inhibitory activity of the compound against HER1 (ErbB1), HER2 (ErbB2) and HER4 (ErbB4). The enzymes used in this test were human ErbB1, ErbB2 and ErbB4. Eurofins Pharma Discovery Service provided the activity detection method, and the results of the inhibitory activity of the tested compound against HER1, HER2 and HER4 were shown in Table 1.
(§2) Experimental Steps and Methods (96-Well Plate):
(§3) 5-fold diluted tested compound buffer (5 μL), peptide substrate poly(Glu, Tyr) (4:1) (2.5 μL), ErbB (4-20 ng, 2.5 μL), MnCl2 (50 mM, 1.25 μL), dH2O (3.75 μL) and [γ-^33P]ATP (10 μL) were added, and incubated at 30° C. for 10 min. 3% phosphoric acid was added to terminate the reaction, and 10 μL of the specimen was transferred to Filtermate A. The filter was washed with 75 mM phosphoric acid for three times and methanol once, and transferred to a sealed plastic bag, and a scintillation fluid mixture (4 mL) was added, The intensity of the emitted photons was detected on the scintillation luminescence counter. The photon intensity of the enzyme sample was compared with the photon intensity of the internal control sample, and the level of photon intensity reflected the strength of the tyrosine kinase activity.

[2] = target: HER1 (ErbB1) (Homo sapiens (Human), UniProt P00533); test: In vitro enzyme activity, HER1 (ErbB1), [γ-33P]ATP filter assay; assay type: biochemical
HER1 (ErbB1), sequence (P00533 25-1210): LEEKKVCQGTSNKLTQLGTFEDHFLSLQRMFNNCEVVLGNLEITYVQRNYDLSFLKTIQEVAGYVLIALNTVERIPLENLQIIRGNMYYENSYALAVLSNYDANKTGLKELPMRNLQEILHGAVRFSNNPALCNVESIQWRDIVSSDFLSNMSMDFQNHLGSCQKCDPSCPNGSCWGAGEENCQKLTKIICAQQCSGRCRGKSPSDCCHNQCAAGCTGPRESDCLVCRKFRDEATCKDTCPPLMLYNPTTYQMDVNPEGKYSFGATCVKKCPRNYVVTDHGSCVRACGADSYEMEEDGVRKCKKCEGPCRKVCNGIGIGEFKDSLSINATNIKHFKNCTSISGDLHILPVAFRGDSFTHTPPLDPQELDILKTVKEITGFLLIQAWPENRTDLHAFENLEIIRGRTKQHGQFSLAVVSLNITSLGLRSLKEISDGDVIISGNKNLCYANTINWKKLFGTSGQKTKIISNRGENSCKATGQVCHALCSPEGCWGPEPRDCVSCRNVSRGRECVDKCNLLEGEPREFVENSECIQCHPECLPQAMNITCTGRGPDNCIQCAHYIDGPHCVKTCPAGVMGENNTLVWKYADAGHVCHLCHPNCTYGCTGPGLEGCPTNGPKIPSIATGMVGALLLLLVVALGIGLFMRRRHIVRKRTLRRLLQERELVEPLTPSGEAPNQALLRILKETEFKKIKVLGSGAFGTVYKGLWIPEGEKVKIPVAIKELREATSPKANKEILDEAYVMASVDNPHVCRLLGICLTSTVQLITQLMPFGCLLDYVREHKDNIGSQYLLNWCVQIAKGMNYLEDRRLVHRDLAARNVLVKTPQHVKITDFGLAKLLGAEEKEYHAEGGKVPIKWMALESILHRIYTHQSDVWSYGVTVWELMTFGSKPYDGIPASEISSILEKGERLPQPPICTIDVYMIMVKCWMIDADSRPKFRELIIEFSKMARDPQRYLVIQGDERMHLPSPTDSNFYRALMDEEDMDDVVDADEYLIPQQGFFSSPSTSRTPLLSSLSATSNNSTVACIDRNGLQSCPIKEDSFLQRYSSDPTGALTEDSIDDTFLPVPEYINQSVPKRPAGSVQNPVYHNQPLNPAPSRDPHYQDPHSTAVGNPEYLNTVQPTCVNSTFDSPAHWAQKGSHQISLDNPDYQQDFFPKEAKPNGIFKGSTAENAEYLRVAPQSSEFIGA
Experimental: The object of this test is to detect the in vitro inhibitory activity of the compound against HER1 (ErbB1), HER2 (ErbB2) and HER4 (ErbB4). The enzymes used in this test were human ErbB1, ErbB2 and ErbB4.
as §2, §3

[3] = target: HER2 (ErbB2) (Homo sapiens (Human), UniProt P04626); test: In vitro enzyme activity, HER2 (ErbB2), [γ-33P]ATP filter assay; assay type: biochemical
HER2 (ErbB2), sequence (P04626 23-1255): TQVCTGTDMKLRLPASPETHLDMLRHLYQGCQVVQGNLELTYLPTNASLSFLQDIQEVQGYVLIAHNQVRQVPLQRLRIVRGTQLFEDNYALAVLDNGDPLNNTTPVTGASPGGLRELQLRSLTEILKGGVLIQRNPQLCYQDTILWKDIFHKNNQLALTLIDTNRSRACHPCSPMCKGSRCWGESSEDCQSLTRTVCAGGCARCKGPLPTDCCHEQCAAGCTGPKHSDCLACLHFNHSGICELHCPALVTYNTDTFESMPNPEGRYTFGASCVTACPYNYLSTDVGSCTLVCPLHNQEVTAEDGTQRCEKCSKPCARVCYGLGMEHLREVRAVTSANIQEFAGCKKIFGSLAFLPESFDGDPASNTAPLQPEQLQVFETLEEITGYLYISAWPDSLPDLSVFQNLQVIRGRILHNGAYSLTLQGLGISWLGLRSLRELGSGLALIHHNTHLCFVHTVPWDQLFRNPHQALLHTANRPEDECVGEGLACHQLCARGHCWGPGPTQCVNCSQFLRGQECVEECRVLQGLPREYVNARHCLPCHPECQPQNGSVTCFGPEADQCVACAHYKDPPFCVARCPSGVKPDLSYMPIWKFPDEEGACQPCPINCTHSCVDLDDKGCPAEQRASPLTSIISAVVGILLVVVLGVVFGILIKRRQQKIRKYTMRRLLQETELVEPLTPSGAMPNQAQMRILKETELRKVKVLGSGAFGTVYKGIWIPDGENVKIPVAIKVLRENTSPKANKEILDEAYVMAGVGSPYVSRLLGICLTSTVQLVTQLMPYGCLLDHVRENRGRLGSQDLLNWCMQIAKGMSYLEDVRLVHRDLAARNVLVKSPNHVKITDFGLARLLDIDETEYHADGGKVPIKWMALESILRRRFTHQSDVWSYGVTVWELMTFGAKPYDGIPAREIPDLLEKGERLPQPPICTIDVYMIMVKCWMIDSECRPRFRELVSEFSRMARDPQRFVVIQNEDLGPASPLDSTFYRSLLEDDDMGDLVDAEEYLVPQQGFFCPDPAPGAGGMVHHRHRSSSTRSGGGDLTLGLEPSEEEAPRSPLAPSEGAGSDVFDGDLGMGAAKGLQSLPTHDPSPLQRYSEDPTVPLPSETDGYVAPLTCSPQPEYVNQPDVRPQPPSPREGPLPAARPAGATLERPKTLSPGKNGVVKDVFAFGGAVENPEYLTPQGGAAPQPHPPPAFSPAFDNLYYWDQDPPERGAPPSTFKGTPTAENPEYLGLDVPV
Experimental: as §1, §2, §3

[4] = system: NCI-N87 cell; test: Cell proliferation inhibitory activity, Cell-Titer-Glo, NCI-N87; assay type: cell-based, human; details: 3 days incubation
Description: (§4) Experiment object: to detect the inhibitory activity of the tested compound on cell proliferation.
(§5) Experimental principle: the luciferase in the Cell-Titer-Glo reagent uses luciferin, oxygen and ATP as reaction substrates to produce oxyluciferin and release energy in the form of light. Since the luciferase reaction requires ATP, the total amount of light produced by the reaction is proportional to the total amount of ATP that reflects cell viability.
(§6) Experimental Materials: • cell lines: NCI-N87 cell line (ATCC-CRL-5822); BT-474 cell line (ATCC-HTB-20) • Cell culture medium: RPMI 1640 medium (Invitrogen #22400-105; 10% serum Invitrogen #10090148; L-glutamine 1×, Gibco #25030-081; double antibody Hyclone #SV30010) • CellTiter-Glo® luminescence cell viability detection kit (Promega #G7573) • 384-well cell culture plate (Greiner #781090) • Compound plate (LABCYTE #LP-0200) • CO2 incubator (Thermo #371) • Vi-cell cell counter (Beckman Coulter) • Pipette (Eppendorf) • Pipette (Greiner) • Pipetting gun (Eppendorf) • Multifunctional microplate reader (Envision Reader) • ECHO Liquid-handling workstation (Labcyte-ECHO555)
(§7) The cells were inoculated in a 384-well plate with a density of 1000 cells per well and 25 μL per well. The edge wells were not inoculated with cells, and was supplemented with 25 μL of phosphate buffer.
(§8) The compound was added to the plate with 9 μL per well.
(§9) (2) The compound was diluted with ECHO liquid-handling workstation, and each well of the cell plate was added with 125 nL of compound. Each well of the cell wells of columns 2 and 23 was added with 125 nL of DMSO, and each well of the Media wells of columns 1 and 24 was added with 125 nL of DMSO.
(§10) (3) Each well of the cell plate was supplemented with 25 μL of culture medium, and the final volume in each well of the cell plate was 50 μL. The concentration of the compound was 10 μM, which was subjected to 3 fold dilution to obtain 10 concentrations. Each concentration was duplicated in left and right wells, and the final DMSO concentration was 0.25%.
(§11) 2.3 After adding the compound, it was centrifuged at 1000 rpm for 1 min. The cell plate was placed in a 37° C., 5% CO2 incubator for 3 days.
(§12) The cell plate was taken from the incubator and equilibrated at room temperature for 30 min. 25 μL of Cell-Titer-Glo reagent was added to each well, shaken for 1 min to make it thoroughly mixed, and centrifuged at 1000 rpm for 1 min. After 10 min, the plate was read on PerkinElmer Envision, and the […] reading time was set to 0.2 seconds.

[5] = system: BT-474 cell; test: Cell proliferation inhibitory activity, Cell-Titer-Glo, BT-474; assay type: cell-based; details: Homo sapiens, BT-474, 72 h; 3 days incubation
Description: as §4, §5, §6, §7, §8, §9, §10, §11, §12

[6] = system: human breast cancer BT-474 cell subcutaneous xenograft tumor; test: In vivo efficacy, BT-474 subcutaneous xenograft tumor model; design: species or system BALB/c nude mice; details: BT-474 xenograft, 100 mg/kg
Experimental: Experiment object: to study the in vivo efficacy of the tested compound in human breast cancer BT-474 cell BALB/c nude mouse subcutaneous xenograft tumor model.
Experimental animals: female BALB/c nude mice, 6 to 8 weeks old, weight: 18 to 22 grams; Supplier Beijing Weitonglihua Laboratory Animal Technology Co., Ltd.
Human breast cancer BT474 cells were cultured in a monolayer in vitro. The culture conditions were: ATCC Hybri-Care Medium with 1.5 g/L sodium bicarbonate, 10% fetal bovine serum, 100 U/mL penicillin and 100 μg/mL streptomycin, and 37° C., 5% CO2 incubator. Conventional digestion treatment with pancreatin-EDTA for passage was carried out twice a week. When the cell saturation was 80% to 90%, and the number reached the requirement, the cells were collected, counted and inoculated.
0.2 mL (1×10^7 cells) of BT474 cells (with matrigel in a volume ratio of 1:1) were subcutaneously inoculated on the right back of each mouse. The grouping and administration were started when the average tumor volume reached about 168 mm^3. (Estrogen tablets were inoculated three days before cell inoculation).
7.3 the Preparation of the Tested Samples, Tumor Measurement, Experimental Index and Statistical Analysis were the Same as in Experimental Example 6.

Row | SMILES | IC50 [1] | IC50 [2] | IC50 [3] | IC50 ([4]; Homo sapiens, NCI-N87, 72 h) | IC50 [5] | IC50 [4] | RTV ([6]; day 20) | T/C ([6]; day 20) | TGI ([6]; day 20) | Tumor volume ([6]; day 20 (head: Day 21), mean ± SEM)
1 | Cc1cc(Nc2ncnn3ccc(CN4CCNCC4)c23)ccc1Oc1ccn2ncnc2c1 [Example 1] | > 1000 nM | > 1000 nM | 24 nM |  |  |  |  |  |  | 
2 | Cc1cc(Nc2ncnn3ccc(CN4CCCNCC4)c23)ccc1Oc1ccn2ncnc2c1 [Example 5] | > 1000 nM | > 1000 nM | 16 nM | 59 nM | 97 nM |  |  |  |  | 
3 | Cc1cc(Nc2ncnn3ccc(CN4[C@@H]5CC[C@H]4C[C@H](O)C5)c23)ccc1Oc1ccn2ncnc2c1 [Example 6] | 150 nM | 743 nM | 18 nM | 4 nM |  |  |  |  |  | 
4 | Cc1cc(Nc2ncnn3ccc(CN4C[C@H]5CC[C@@H](C4)[C@H]5N)c23)ccc1Oc1ccn2ncnc2c1 [Example 7] | > 1000 nM |  | 10 nM | 27 nM |  |  |  |  |  | 
5 | Cc1cc(Nc2ncnn3ccc(CN4[C@@H]5CC[C@H]4C[C@H](N)C5)c23)ccc1Oc1ccn2ncnc2c1 [Example 8] | 184 nM | 385 nM | 10 nM | 20 nM |  |  |  |  |  | 
6 | Cc1cc(Nc2ncnn3ccc(CN4CCC(C)(N)CC4)c23)ccc1Oc1ccn2ncnc2c1 [Example 9] | 201 nM | 325 nM | 11 nM | 8 nM |  |  |  |  |  | 
7 | Cc1cc(Nc2ncnn3ccc(CN4CC(O)C4)c23)ccc1Oc1ccn2ncnc2c1 [Example 12] |  |  |  | 52 nM |  |  |  |  |  | 
8 | Cc1cc(Nc2ncnn3ccc(CN4CCC(O)CC4)c23)ccc1Oc1ccn2ncnc2c1 [Example 16] | 535 nM | 861 nM | 7 nM | 38 nM |  |  |  |  |  | 
9 | COCCNC1CCN(Cc2ccn3ncnc(Nc4ccc(Oc5ccn6ncnc6c5)c(C)c4)c23)CC1 [Example 18] | > 1000 nM | 509 nM | 4 nM | 65 nM |  |  |  |  |  | 
10 | CCNC1CCN(Cc2ccn3ncnc(Nc4ccc(Oc5ccn6ncnc6c5)c(C)c4)c23)CC1 [Example 19] |  |  |  | 23 nM |  |  |  |  |  | 
11 | COCC1(N)CCN(Cc2ccn3ncnc(Nc4ccc(Oc5ccn6ncnc6c5)c(C)c4)c23)CC1 [Example 20] | 230 nM | 167 nM | 7 nM | 9 nM | 88 nM |  |  |  |  | 
12 | Cc1cc(Nc2ncnn3ccc(CN4CC[C@H](N)[C@@H](F)C4)c23)ccc1Oc1ccn2ncnc2c1 [Example 21] | > 1000 nM | 909 nM | 4 nM |  |  | 19 nM |  |  |  | 
13 | Cc1cc(Nc2ncnn3ccc(CN4CC[C@H](N)[C@@H](F)C4)c23)ccc1Oc1ccn2ncnc2c1 [Example 23] | 41 nM | 61 nM | 2 nM |  |  | 3 nM |  |  |  | 
14 | CO[C@H]1CN(Cc2ccn3ncnc(Nc4ccc(Oc5ccn6ncnc6c5)c(C)c4)c23)CC[C@@H]1N [Example 25] | 369 nM | 207 nM | 2 nM |  |  | 14 nM |  |  |  | 
15 | Cc1cc(Nc2ncnn3ccc(CC4CCC(N)CC4)c23)ccc1Oc1ccn2ncnc2c1 (stereo not shown) [Example 29] |  |  |  | 27 nM |  |  |  |  |  | 
16 | NC1CCN(Cc2ccn3ncnc(Nc4ccc(Oc5ccn6ncnc6c5)c(C(F)(F)F)c4)c23)CC1 [Example 30] | > 1000 nM | 663 nM | 14 nM |  |  |  |  |  |  | 
17 | Cc1c(Oc2ccn3ncnc3c2)ccc(Nc2ncnn3ccc(CN4CCC(N)CC4)c23)c1F [Example 31] | > 1000 nM | 667 nM | 3 nM | 31 nM |  |  |  |  |  | 
18 | NC1CCN(Cc2ccn3ncnc(Nc4ccc(Oc5ccn6ncnc6c5)c(Cl)c4F)c23)CC1 [Example 32] | 356 nM | 284 nM | 2 nM | 11 nM | 87 nM |  | 0.61 ± 0.06 | 7.84% | 106.44% | 101 mm^3 and 101 ± 12 mm^3
